Key:
Assay in all cases: Test B preemergence/postemergence greenhouse plant response rating 0 to 10
[1] = tested on: barley; type: in vivo, Hordeum vulgare; conditions: 0 to 10 scale
Excerpt: (§1) Seeds of barley (Hordeum vulgare), barnyardgrass (Echinochloa crus-galli), bedstraw (Galium aparine), blackgrass (Alopecurus myosuroides), […] (Bromus secalinus), chickweed (Stellaria media), cocklebur (Xanthium pensylvanicum), corn (Zea mays), cotton (Gossypium hirsutum), crabgrass (Digitaria spp.), giant foxtail (Setaria faberii), lambsquarters (Chenopodium album), morningglory (Ipomoea hederacea), rape (Brassica napus), rice (Oryza sativa), sorghum (Sorghum bicolor), soybean (Glycine max), sugar beet (Beta vulgaris), velvetleaf (Abutilon theophrasti), wheat (Triticum aestivum), wild buckwheat (Polygonum convolvulus), and wild oat (Avena fatua) and purple nutsedge. (Cyperus rotundus) tubers were planted and treated preemergence with test chemicals dissolved in a non-phytotoxic solvent. At the same time, these crop and weed species were also treated with postemergence applications of test chemicals. Plants ranged in height from two to eighteen cm (one to four leaf stage) for postemergence treatments. Treated plants and controls were maintained in a greenhouse for twelve to sixteen days, after which all species were compared to controls and visually evaluated. […] A dash (-) response means no test result.

[2] = tested on: barnyardgrass; type: in vivo, Echinochloa crus-galli; conditions: 0 to 10 scale
Excerpt: as §1

[3] = tested on: bedstraw; type: in vivo, Galium aparine; conditions: 0 to 10 scale
Excerpt: as §1

[4] = tested on: blackgrass; type: in vivo, Alopecurus myosuroides; conditions: 0 to 10 scale
Excerpt: as §1

[5] = tested on: cheatgrass; type: in vivo, Bromus secalinus; conditions: 0 to 10 scale
Excerpt: as §1

[6] = tested on: chickweed; type: in vivo, Stellaria media; conditions: 0 to 10 scale
Excerpt: as §1

[7] = tested on: cocklebur; type: in vivo, Xanthium pensylvanicum; conditions: 0 to 10 scale
Excerpt: as §1

[8] = tested on: corn; type: in vivo, Zea mays; conditions: 0 to 10 scale
Excerpt: as §1

[9] = tested on: cotton; type: in vivo, Gossypium hirsutum; conditions: 0 to 10 scale
Excerpt: as §1

[10] = tested on: crabgrass; type: in vivo, Digitaria spp.; conditions: 0 to 10 scale
Excerpt: as §1

[11] = tested on: giant foxtail; type: in vivo, Setaria faberii; conditions: 0 to 10 scale
Excerpt: as §1

[12] = tested on: lambsquarters; type: in vivo, Chenopodium album; conditions: 0 to 10 scale
Excerpt: as §1

[13] = tested on: morningglory; type: in vivo, Ipomoea hederacea; conditions: 0 to 10 scale
Excerpt: as §1

[14] = tested on: rape; type: in vivo, Brassica napus; conditions: 0 to 10 scale
Excerpt: as §1

[15] = tested on: rice; type: in vivo, Oryza sativa; conditions: 0 to 10 scale
Excerpt: as §1

[16] = tested on: sorghum; type: in vivo, Sorghum bicolor; conditions: 0 to 10 scale
Excerpt: as §1

[17] = tested on: soybean; type: in vivo, Glycine max; conditions: 0 to 10 scale
Excerpt: as §1

[18] = tested on: sugar beet; type: in vivo, Beta vulgaris; conditions: 0 to 10 scale
Excerpt: as §1

[19] = tested on: velvetleaf; type: in vivo, Abutilon theophrasti; conditions: 0 to 10 scale
Excerpt: as §1

[20] = tested on: wheat; type: in vivo, Triticum aestivum; conditions: 0 to 10 scale
Excerpt: as §1

[21] = tested on: wild buckwheat; type: in vivo, Polygonum convolvulus; conditions: POSTEMERGENCE, 0 to 10 scale
Excerpt: as §1

[22] = tested on: wild oat; type: in vivo, Avena fatua; conditions: 0 to 10 scale
Excerpt: as §1

[23] = tested on: purple nutsedge; type: in vivo, Cyperus rotundus; conditions: 0 to 10 scale
Excerpt: as §1

Structure (SMILES): CCCCN1C(=O)COc2cc(F)c(-c3nn4c(c3Cl)CCCC4)cc21 [Compound 57]
- Plant response rating, Barley ([1]; POSTEMERGENCE, Rate 10 g/ha): 4
- Plant response rating, Barley ([1]; POSTEMERGENCE, Rate 50 g/ha): 4
- Plant response rating, Barley ([1]; PREEMERGENCE, Rate 10 g/ha): 0
- Plant response rating, Barley ([1]; PREEMERGENCE, Rate 50 g/ha): 0
- Plant response rating, Barnyardgrass ([2]; POSTEMERGENCE, Rate 10 g/ha): 3
- Plant response rating, Barnyardgrass ([2]; POSTEMERGENCE, Rate 50 g/ha): 3
- Plant response rating, Barnyardgrass ([2]; PREEMERGENCE, Rate 10 g/ha): 0
- Plant response rating, Barnyardgrass ([2]; PREEMERGENCE, Rate 50 g/ha): 3
- Plant response rating, Bedstraw ([3]; POSTEMERGENCE, Rate 10 g/ha): 9
- Plant response rating, Bedstraw ([3]; POSTEMERGENCE, Rate 50 g/ha): 9
- Plant response rating, Bedstraw ([3]; PREEMERGENCE, Rate 10 g/ha): 6
- Plant response rating, Bedstraw ([3]; PREEMERGENCE, Rate 50 g/ha): 8
- Plant response rating, Blackgrass ([4]; POSTEMERGENCE, Rate 10 g/ha): 4
- Plant response rating, Blackgrass ([4]; POSTEMERGENCE, Rate 50 g/ha): 7
- Plant response rating, Blackgrass ([4]; PREEMERGENCE, Rate 10 g/ha): 3
- Plant response rating, Blackgrass ([4]; PREEMERGENCE, Rate 50 g/ha): 6
- Plant response rating, Cheatgrass ([5]; POSTEMERGENCE, Rate 10 g/ha): 4
- Plant response rating, Cheatgrass ([5]; POSTEMERGENCE, Rate 50 g/ha): 6
- Plant response rating, Cheatgrass ([5]; PREEMERGENCE, Rate 10 g/ha): 3
- Plant response rating, Cheatgrass ([5]; PREEMERGENCE, Rate 50 g/ha): 5
- Plant response rating, Chickweed ([6]; POSTEMERGENCE, Rate 10 g/ha): 8
- Plant response rating, Chickweed ([6]; POSTEMERGENCE, Rate 50 g/ha): 10
- Plant response rating, Chickweed ([6]; PREEMERGENCE, Rate 10 g/ha): 6
- Plant response rating, Chickweed ([6]; PREEMERGENCE, Rate 50 g/ha): 9
- Plant response rating, Cocklebur ([7]; POSTEMERGENCE, Rate 10 g/ha): 9
- Plant response rating, Cocklebur ([7]; POSTEMERGENCE, Rate 50 g/ha): 9
- Plant response rating, Cocklebur ([7]; PREEMERGENCE, Rate 10 g/ha): 0
- Plant response rating, Cocklebur ([7]; PREEMERGENCE, Rate 50 g/ha): 3
- Plant response rating, Corn ([8]; POSTEMERGENCE, Rate 10 g/ha): 3
- Plant response rating, Corn ([8]; POSTEMERGENCE, Rate 50 g/ha): 4
- Plant response rating, Corn ([8]; PREEMERGENCE, Rate 50 g/ha): 0
- Plant response rating, Cotton ([9]; POSTEMERGENCE, Rate 10 g/ha): 10
- Plant response rating, Cotton ([9]; POSTEMERGENCE, Rate 50 g/ha): 10
- Plant response rating, Cotton ([9]; PREEMERGENCE, Rate 10 g/ha): 0
- Plant response rating, Cotton ([9]; PREEMERGENCE, Rate 50 g/ha): 2
- Plant response rating, Crabgrass ([10]; POSTEMERGENCE, Rate 10 g/ha): 2
- Plant response rating, Crabgrass ([10]; POSTEMERGENCE, Rate 50 g/ha): 3
- Plant response rating, Crabgrass ([10]; PREEMERGENCE, Rate 10 g/ha): 0
- Plant response rating, Crabgrass ([10]; PREEMERGENCE, Rate 50 g/ha): 0
- Plant response rating, Giant foxtail ([11]; POSTEMERGENCE, Rate 10 g/ha): 5
- Plant response rating, Giant foxtail ([11]; POSTEMERGENCE, Rate 50 g/ha): 6
- Plant response rating, Giant foxtail ([11]; PREEMERGENCE, Rate 10 g/ha): 0
- Plant response rating, Giant foxtail ([11]; PREEMERGENCE, Rate 50 g/ha): 2
- Plant response rating, Lambsquarter ([12]; POSTEMERGENCE, Rate 10 g/ha): 9
- Plant response rating, Lambsquarter ([12]; POSTEMERGENCE, Rate 50 g/ha): 10
- Plant response rating, Lambsquarter ([12]; PREEMERGENCE, Rate 50 g/ha): 10
- Plant response rating, Morningglory ([13]; POSTEMERGENCE, Rate 10 g/ha): 10
- Plant response rating, Morningglory ([13]; POSTEMERGENCE, Rate 50 g/ha): 10
- Plant response rating, Morningglory ([13]; PREEMERGENCE, Rate 50 g/ha): 10
- Plant response rating, Rape ([14]; POSTEMERGENCE, Rate 10 g/ha): 10
- Plant response rating, Rape ([14]; POSTEMERGENCE, Rate 50 g/ha): 10
- Plant response rating, Rape ([14]; PREEMERGENCE, Rate 50 g/ha): 0
- Plant response rating, Rice ([15]; POSTEMERGENCE, Rate 10 g/ha): 3
- Plant response rating, Rice ([15]; POSTEMERGENCE, Rate 50 g/ha): 3
- Plant response rating, Rice ([15]; PREEMERGENCE, Rate 50 g/ha): 0
- Plant response rating, Sorghum ([16]; POSTEMERGENCE, Rate 10 g/ha): 2
- Plant response rating, Sorghum ([16]; POSTEMERGENCE, Rate 50 g/ha): 4
- Plant response rating, Sorghum ([16]; PREEMERGENCE, Rate 50 g/ha): 0
- Plant response rating, Soybean ([17]; POSTEMERGENCE, Rate 10 g/ha): 6
- Plant response rating, Soybean ([17]; POSTEMERGENCE, Rate 50 g/ha): 8
- Plant response rating, Soybean ([17]; PREEMERGENCE, Rate 50 g/ha): 0
- Plant response rating, Sugar beet ([18]; POSTEMERGENCE, Rate 10 g/ha): 10
- Plant response rating, Sugar beet ([18]; POSTEMERGENCE, Rate 50 g/ha): 10
- Plant response rating, Sugar beet ([18]; PREEMERGENCE, Rate 50 g/ha): 9
- Plant response rating, Velvetleaf ([19]; POSTEMERGENCE, Rate 10 g/ha): 6
- Plant response rating, Velvetleaf ([19]; POSTEMERGENCE, Rate 50 g/ha): 9
- Plant response rating, Velvetleaf ([19]; PREEMERGENCE, Rate 50 g/ha): 10
- Plant response rating, Wheat ([20]; POSTEMERGENCE, Rate 10 g/ha): 7
- Plant response rating, Wheat ([20]; POSTEMERGENCE, Rate 50 g/ha): 7
- Plant response rating, Wheat ([20]; PREEMERGENCE, Rate 50 g/ha): 2
- Plant response rating, Wild buckwheat ([21]; Rate 10 g/ha): 10
- Plant response rating, Wild buckwheat ([21]; Rate 50 g/ha): 10
- Plant response rating, Wild oat ([22]; POSTEMERGENCE, Rate 10 g/ha): 4
- Plant response rating, Wild oat ([22]; POSTEMERGENCE, Rate 50 g/ha): 7
- Plant response rating, Wild oat ([22]; PREEMERGENCE, Rate 50 g/ha): 5
- Plant response rating, Nutsedge ([23]; POSTEMERGENCE, Rate 10 g/ha): 2
- Plant response rating, Nutsedge ([23]; POSTEMERGENCE, Rate 50 g/ha): 4
- Plant response rating, Nutsedge ([23]; PREEMERGENCE, Rate 50 g/ha): 0
